Results reported in paper PMC12866823, “The Pivotal Role of GR‐CAR Pathway in Fetal Programming of Hepatic Cytochrome P450 3A Alteration in Adulthood” (Advanced Science, 2025).

Experiments:
[1] = tested on: bone marrow mesenchymal stem cells hepatoid differentiated cell (BHDC); assay: Treatment of BHDC: mRNA, protein, ChIP-PCR and CoIP readouts; type: cell-based, rat; conditions: for interaction between GR and P300/CBP (co-immunoprecipitation): 500 x 10^-9 M DEX or 1200 x 10^-9 M CORT; for gene and protein expression of P300/CBP, binding of GR-P300/CBP to CAR promoter, acetylation levels of H3K9 and H3K27: dose-dependent
Description: Protocols for preparing BMSCs and the hepatoid‐differentiated cells (BHDCs) were based on our prior study.^[ [98] ^] BMSCs were harvested from PW3 male rats and cultured at a density of 4 × 10^5 cells per well in six‐well plates with growth medium (αMEM with 10% fetal bovine serum (FBS), […] streptomycin, and 100 U mL^−1 penicillin).
All primers are listed in Table S2 (Supporting Information).
Results were quantified using Image J Launcher.
Cells were cross‐linked with 1% formaldehyde at room temperature, and glycine (final concentration 125 × 10^−3 M) was added to terminate the reaction.^[ [105] ^] The suspensions were sonicated to obtain 200‐800 bp DNA fragments, and then were incubated with Agarose‐protein A/G beads and divided into multiple portions. Corresponding antibodies (H3K9ac, H3K14ac, H3K27ac, H3K4me2, H3K27me3, GR, and CAR) and IgG were added and shaken overnight at 4 °C for immunoprecipitation, followed by the addition of 200 µg mL^−1 proteinase K at 65 °C overnight. DNA was isolated from each immunoprecipitation and subjected to RT‐qPCR analysis. The Jaspar database was consulted to query gene transcription binding sites.^[ [107] ^] Primers for amplification of multiple regions of the CAR promoter were designed using the UCSC Genome Browser (http://genome.ucsc.edu/) and Primer 3 Input Browser (http://primer3.ut.ee/). The primer sequences are listed in Table S4 (Supporting Information). Data from RT‐qPCR were used to calculate the abundance of proteins enriched in the promoters of each gene using the following formula: IP/input = 100 × 2^Ct input DNA – Ct IP DNA.
Tissue and cell lysates were collected, and protein concentrations were quantified using a BCA protein quantification kit. Protein A agarose gel beads (20 to 40 µL) were washed 2 to 3 times with lysis buffer and centrifuged at 3000 rpm for 5 min each time. Between 500 and 1000 µL of homogenized lysis supernatant from tissues or cells were transferred to a clean EP tube, and 1–10 µL of specific primary antibody was added to incubate overnight at 4 °C. IgG from the same species served as a negative control. Subsequently, 20 µL of A/G agarose gel beads were added, and the mixture was incubated for 3‐4 h at 4 °C. After incubation, the sample was centrifuged at 1000 g for 5 min at 4 °C to collect the immunoprecipitated complexes; the mixture was then washed 3‐4 times with 1 mL ice‐cold IP lysate (without protease inhibitor) by centrifugation at 3000 g for 5 min. Following the final wash, 40 µL of 1 × SDS loading buffer containing mercaptoethanol was added, boiled for 10 min at 100 °C, centrifuged at 1000 g for 5 min at 4 °C, and 15–20 µL of supernatant was used for WB assay.

[2] = tested on: rat fetal primary hepatocytes; assay: Treatment of rat fetal primary hepatocytes: mRNA and protein expression; type: cell-based; conditions: DEX 20-500 x 10^-9 M or CORT 300-1200 x 10^-9 M, concentration-dependent
Description: (§1) Cells and liver samples were subjected to RNA isolation using a TRIZOL reagent. Process of RNA extraction and cDNA preparation was according to our prior work.^[ [103] ^] qPCR was performed using the Cham Q TM Universal SYBR® qPCR Master Mix on the QuantStudio®5 Real‐Time PCR System (Thermo Scientific, Waltham, MA, USA) for detection. All primers are listed in Table S2 (Supporting Information). Target gene expression was standardized using housekeeping gene and computed using the 2^−ΔΔCt methodology. For the gene expression levels assayed in each tissue of fetal mice, n indicates a litter (with each n ranging from 11‐12).
(§2) Total protein was extracted from the liver and cells using RIPA lysis buffer, and protein concentration was determined using a bicinchoninic acid (BCA) assay. Nuclear proteins were extracted using the Nuclear Protein Extraction Kit (no. P0028, Beyotime Institute of Biotechnology, Shanghai, China).^[ [104] ^] To verify the purity of extracted cellular fractions, we examined the levels of cytoplasmic localization proteins (ACTB and GAPDH) and nuclear localization protein (H3) in cytoplasmic and nuclear samples, respectively. […] Details of the western blot procedure have been described previously.^[ [105] ^] […] Results were quantified using Image J Launcher.

GR = assay: Dual-luciferase assay of transcriptional function of GR on CAR; type: cell-based, human; conditions: with DEX treatment
Description: The dual‐luciferase reporter plasmid of pTol2‐cmv‐Fluc‐bGH polyA‐EF1α‐Rluc‐polyA was synthesized by Tsingke company and worked as a positive control. Overlapping PCR was performed to generate insert of the target gene promoter base on HepG2 genomic DNA template. Employing Hifi assembly kit, promoter fragments were inserted into SpeI/NtoI site of reporter vector, and coding sequences were inserted into XbaI/XhoI site of pTol2‐EGFP‐polyA plasmid. 48 h after transfection, cells were collected for dual‐luciferase assay according to Promega luciferase kit instructions. The primers for overlap PCR are listed in Table S5 (Supporting Information).

LS174T = assay: Treatment of LS174T with hydrocortisone; type: cell-based, human
Description: as §1
as §2, with “Launcher. […]” for “Launcher.”

HepG2 = assay: Treatment of HepG2 with hydrocortisone; type: cell-based, human
Description: as §1
as §2, with “Launcher. […]” for “Launcher.”

[3] = DEX 20-500 x 10^-9 M or CORT 300-1200 x 10^-9 M
[4] = 500 x 10^-9 M DEX with 10 x 10^-6 M RU486 or 100 x 10^-9 M GR siRNA
[5] = 0, 300, 600, 1200 nM, concentration-dependent

C[C@]12C[C@H](O)[C@H]3[C@@H](CCC4=CC(=O)CC[C@@]43C)[C@@H]1CC[C@@H]2C(=O)CO [CORT, corticosterone]
interaction between GR and P300/CBP (co-immunoprecipitation) [1]: significantly enhanced
CYP3A and CYP2B expression, gene and protein levels ([1]; DEX 20-500 x 10^-9 M or CORT 300-1200 x 10^-9 M, 24 h, concentration-dependent): significantly induced CYP3A and CYP2B expression at both the gene and protein levels
gene and protein expression of P300/CBP, binding of GR-P300/CBP to CAR promoter, acetylation levels of H3K9 and H3K27 [1, 3]: significantly induced
CYP3A and CYP2B expression, gene and protein levels [2]: significantly induced CYP3A and CYP2B expression at both the gene and protein levels

C[C@@H]1C[C@H]2[C@@H]3CCC4=CC(=O)C=C[C@]4(C)[C@@]3(F)[C@@H](O)C[C@]2(C)[C@@]1(O)C(=O)CO [DEX, dexamethasone]
interaction between GR and P300/CBP (co-immunoprecipitation) [1]: significantly enhanced
gene and protein expression of P300/CBP, binding of GR-P300/CBP to CAR promoter, acetylation levels of H3K9 and H3K27 [1, 3]: significantly induced

C=C1[C@@H](O)[C@@H]2O[C@]3(CC[C@H](/C=C/[C@@H](C)[C@@H]4CC(C)=C[C@@]5(O[C@H](C[C@@](C)(O)C(=O)O)CC[C@H]5O)O4)O3)CC[C@H]2O[C@@H]1[C@@H](O)C[C@H](C)[C@H]1O[C@@]2(CCCCO2)CC[C@H]1C [OA, okadaic acid]
effect on DEX-enhanced total and nuclear protein levels of CAR ([1]; 10 x 10^-9 M OA with DEX): reversed
expression of downstream CYP3A and CYP2B ([1]; 10 x 10^-9 M OA with or without DEX): significantly reduced the expression of downstream CYP3A and CYP2B with or without DEX incubation

CC#C[C@]1(O)CC[C@H]2[C@@H]3CCC4=CC(=O)CCC4=C3[C@@H](c3ccc(N(C)C)cc3)C[C@@]21C [RU486, mifepristone]
effect on GR protein nuclear translocation and CYPs expression induced by DEX ([1]; 10 x 10^-6 M with 500 x 10^-9 M DEX): significantly inhibited protein nuclear translocation of GR and expression of CYPs induced by DEX treatment
effect on CAR induction by DEX [1, 4]: suppressed
effect on DEX induction of P300/CBP expression, P300/CBP binding to CAR promoter and H3K9/H3K27 acetylation [1, 4]: reversed the induction of P300/CBP expression, the binding of P300/CBP to the CAR promoter, and the acetylation levels of H3K9 and H3K27 by DEX
effect on transcriptional activity of GR (on CAR) induced by DEX (GR): blocked transcriptional activity of GR induced by DEX

C[C@]12CCC(=O)C=C1CC[C@@H]1[C@@H]2[C@@H](O)C[C@@]2(C)[C@H]1CC[C@]2(O)C(=O)CO [hydrocortisone]
expression of downstream genes (LS174T; [5]): could significantly induce the expression of downstream genes
related indicators and nuclear translocation of GR and CAR (LS174T; 1200 x 10^-9 M): significantly increased
expression of downstream genes (HepG2; [5]): could significantly induce the expression of downstream genes
related indicators and nuclear translocation of GR and CAR (HepG2; 1200 x 10^-9 M): significantly increased
